Reference: patent US11299501B2 (BRISTOL-MYERS SQUIBB COMPANY, priority 2017, dated 2022)

Columns and labels:
Type in all cases: cell-based
human TLR9 = target: T1, human TLR9 (Homo sapiens, UniProt Q9NR96); assay: TLR9 inhibition reporter assay (HEK-Blue SEAP); conditions: cells overexpressing human TLR9, SEAP reporter, stimulated with ODN2006 5 nM, 22 hour incubation
T1 construct: host or cells: HEK-Blue cells
T1 sequence (Q9NR96 26-1032): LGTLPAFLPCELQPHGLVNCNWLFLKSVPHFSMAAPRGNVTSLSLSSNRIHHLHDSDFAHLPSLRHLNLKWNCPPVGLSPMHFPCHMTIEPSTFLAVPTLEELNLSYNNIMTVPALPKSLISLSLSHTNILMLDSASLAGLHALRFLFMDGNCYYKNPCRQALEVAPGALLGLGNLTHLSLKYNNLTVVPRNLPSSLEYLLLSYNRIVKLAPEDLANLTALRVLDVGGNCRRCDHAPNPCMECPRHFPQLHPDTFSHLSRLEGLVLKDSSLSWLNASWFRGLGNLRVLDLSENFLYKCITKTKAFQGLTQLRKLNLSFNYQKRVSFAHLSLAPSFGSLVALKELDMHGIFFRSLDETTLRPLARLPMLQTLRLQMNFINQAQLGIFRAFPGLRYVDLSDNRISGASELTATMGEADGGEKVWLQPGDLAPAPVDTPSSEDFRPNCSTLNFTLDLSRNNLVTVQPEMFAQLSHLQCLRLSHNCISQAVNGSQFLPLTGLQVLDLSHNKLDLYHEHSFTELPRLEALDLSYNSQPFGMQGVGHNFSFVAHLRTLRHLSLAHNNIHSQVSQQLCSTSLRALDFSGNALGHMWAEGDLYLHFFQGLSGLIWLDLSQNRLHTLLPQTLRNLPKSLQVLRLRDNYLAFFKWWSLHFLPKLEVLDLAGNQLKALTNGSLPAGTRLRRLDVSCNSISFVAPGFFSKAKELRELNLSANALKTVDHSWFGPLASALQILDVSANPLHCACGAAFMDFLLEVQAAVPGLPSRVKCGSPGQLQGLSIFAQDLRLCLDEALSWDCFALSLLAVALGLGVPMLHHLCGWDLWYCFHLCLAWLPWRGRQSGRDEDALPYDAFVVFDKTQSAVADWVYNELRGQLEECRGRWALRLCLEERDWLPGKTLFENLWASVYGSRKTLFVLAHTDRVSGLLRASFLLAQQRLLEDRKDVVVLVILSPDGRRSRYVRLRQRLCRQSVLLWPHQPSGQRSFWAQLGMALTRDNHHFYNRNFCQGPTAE
Experimental: (§1) TLR7/8/9 Inhibition Reporter Assays
(§2) […] (Invivogen) overexpressing human TLR7, TLR8 or TLR9 receptors were used for screening inhibitors of these receptors using an inducible SEAP (secreted embryonic alkaline phosphatase) reporter gene under the control of the IFN-β minimal promoter fused to five NF-κB and AP-1-binding sites. Briefly, cells are seeded into Greiner 384 well plates (15000 cells per well for TLR7, 20,000 for TLR8 and 25,000 for TLR9) and then treated with test compounds in DMSO to yield a final dose response concentration range of 0.05 nM-50 μM. After a 30 minute compound pre-treatment at room temperature, the cells are then stimulated with a TLR7 ligand (gardiquimod at a final concentration of 7.5 μM). TLR8 ligand (R848 at a final concentration of 15.9 μM) or TLR9 ligand (ODN2006 at a final concentration of 5 nM) to activate NF-κB and AP-1 which induce the production of SEAP. After a 22 hour incubation at 37° C., 5% CO2, SEAP levels are determined with the addition of HEK-Blue™ Detection reagent (Invivogen), a cell culture medium that allows for detection of SEAP, according to manufacturer's specifications. The percent inhibition is determined as the % reduction in the HEK-Blue signal present in wells treated with agonist plus DMSO alone compared to wells treated with a known inhibitor.

human TLR8 = target: T2, human TLR8 (Homo sapiens, UniProt Q9NR97); assay: TLR8 inhibition reporter assay (HEK-Blue SEAP); conditions: cells overexpressing human TLR8, SEAP reporter, stimulated with R848 15.9 μM, 22 hour incubation
T2 construct: host or cells: HEK-Blue cells
T2 sequence (Q9NR97 27-1041): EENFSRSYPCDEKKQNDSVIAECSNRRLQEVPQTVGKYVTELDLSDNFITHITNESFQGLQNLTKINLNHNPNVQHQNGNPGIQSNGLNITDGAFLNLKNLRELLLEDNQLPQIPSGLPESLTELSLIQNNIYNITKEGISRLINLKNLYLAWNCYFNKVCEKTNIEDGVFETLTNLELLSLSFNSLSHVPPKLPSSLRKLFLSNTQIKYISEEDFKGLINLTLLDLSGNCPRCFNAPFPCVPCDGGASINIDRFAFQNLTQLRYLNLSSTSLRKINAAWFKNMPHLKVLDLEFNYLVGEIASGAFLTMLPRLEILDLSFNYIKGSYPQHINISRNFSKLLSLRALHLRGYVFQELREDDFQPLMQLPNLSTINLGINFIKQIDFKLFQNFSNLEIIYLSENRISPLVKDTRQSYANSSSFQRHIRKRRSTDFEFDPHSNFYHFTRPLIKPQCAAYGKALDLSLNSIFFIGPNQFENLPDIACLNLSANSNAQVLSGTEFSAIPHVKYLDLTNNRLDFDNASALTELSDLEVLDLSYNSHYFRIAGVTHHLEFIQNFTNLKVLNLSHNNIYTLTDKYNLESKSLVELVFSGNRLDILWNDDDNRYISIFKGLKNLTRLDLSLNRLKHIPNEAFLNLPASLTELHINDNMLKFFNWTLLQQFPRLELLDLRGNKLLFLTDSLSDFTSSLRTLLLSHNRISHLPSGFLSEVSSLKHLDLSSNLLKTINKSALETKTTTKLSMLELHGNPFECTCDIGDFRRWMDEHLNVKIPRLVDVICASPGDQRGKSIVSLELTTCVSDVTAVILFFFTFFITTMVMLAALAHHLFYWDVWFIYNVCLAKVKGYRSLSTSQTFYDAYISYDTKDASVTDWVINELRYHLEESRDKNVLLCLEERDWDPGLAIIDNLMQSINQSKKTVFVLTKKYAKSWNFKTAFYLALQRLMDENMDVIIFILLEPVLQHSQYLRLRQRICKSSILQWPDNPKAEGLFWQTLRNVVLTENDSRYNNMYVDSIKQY
Experimental: as §1, §2

human TLR7 = target: T3, human TLR7 (Homo sapiens, UniProt Q9NYK1); assay: TLR7 inhibition reporter assay (HEK-Blue SEAP); conditions: cells overexpressing human TLR7, SEAP reporter, stimulated with gardiquimod 7.5 μM, 22 hour incubation
T3 construct: host or cells: HEK-Blue cells
T3 sequence (Q9NYK1 27-1049): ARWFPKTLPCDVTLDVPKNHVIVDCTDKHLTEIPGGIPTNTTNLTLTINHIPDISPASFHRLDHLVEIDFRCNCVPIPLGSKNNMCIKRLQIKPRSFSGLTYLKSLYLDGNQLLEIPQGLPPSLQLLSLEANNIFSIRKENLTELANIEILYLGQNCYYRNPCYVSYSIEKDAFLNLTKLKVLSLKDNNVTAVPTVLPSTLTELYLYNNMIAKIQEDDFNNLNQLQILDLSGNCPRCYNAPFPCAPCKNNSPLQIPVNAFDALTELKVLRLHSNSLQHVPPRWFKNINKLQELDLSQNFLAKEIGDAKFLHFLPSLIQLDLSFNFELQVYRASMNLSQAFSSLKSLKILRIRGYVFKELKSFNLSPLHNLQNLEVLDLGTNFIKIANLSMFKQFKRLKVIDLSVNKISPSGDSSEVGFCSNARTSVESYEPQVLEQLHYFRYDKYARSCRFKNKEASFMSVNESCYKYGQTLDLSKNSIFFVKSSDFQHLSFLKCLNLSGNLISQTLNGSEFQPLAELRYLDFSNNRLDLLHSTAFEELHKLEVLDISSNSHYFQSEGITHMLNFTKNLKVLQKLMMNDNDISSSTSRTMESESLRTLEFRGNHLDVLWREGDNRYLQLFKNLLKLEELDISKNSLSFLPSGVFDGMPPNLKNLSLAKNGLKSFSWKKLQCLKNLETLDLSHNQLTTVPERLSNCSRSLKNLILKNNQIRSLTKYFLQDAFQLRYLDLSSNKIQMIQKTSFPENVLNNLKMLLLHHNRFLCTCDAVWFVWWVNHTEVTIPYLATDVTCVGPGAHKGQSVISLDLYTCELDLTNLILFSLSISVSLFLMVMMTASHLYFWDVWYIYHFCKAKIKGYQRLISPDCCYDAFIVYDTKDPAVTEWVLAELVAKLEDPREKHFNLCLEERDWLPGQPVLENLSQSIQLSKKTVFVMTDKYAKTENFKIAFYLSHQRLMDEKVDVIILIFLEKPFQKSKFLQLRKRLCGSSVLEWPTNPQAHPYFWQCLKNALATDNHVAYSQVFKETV
Experimental: as §1, §2

IC50 (human TLR9) [µM] | IC50 (human TLR8) [µM] | IC50 (human TLR7) [µM] | SMILES
1 to 50 | 0.1 to 1 | < 0.1 | Cc1cc(-c2[nH]c3cnc(C4CCNCC4)nc3c2C(C)C)cn(C)c1=O [Example 7, 5-(7-isopropyl-2-(piperidin-4-yl)-5H-pyrrolo[3,2-d]pyrimidin-6-yl)-1,3-dimethylpyridin-2(1H)-one]
1 to 50 | < 0.1 | < 0.1 | COc1cc(-c2[nH]c3cnc(C4CCN(C(=O)CN(C)C)CC4)nc3c2C(C)C)cn2ncnc12 [Example 11, 2-(dirnethylamino)-1-(4-(7-isopropyl-6-(8-methoxy-[1,2,4]triazolo[1,5-a]pyridin-6-yl)-5H-pyrrolo[3,2-d]pyrimidin-2-yl)piperidin-1-yl)ethan-1-one]
1 to 50 | 0.1 to 1 | 1 to 50 | CCc1c(-c2ccc(OC)c(OC)c2)[nH]c2cnc(-c3nnc(C[C@H]4CCCCN4)o3)nc12 [Example 36, (R)-2-(6-(3,4-dimethoxyphenyl)-7-ethyl-5H-pyrrolo[3,2-d]pyrhnidin-2-yl)-5-(piperidin-2-ylmethyl)-1,3,4-oxadiazole]
1 to 50 | < 0.1 | < 0.1 | Cc1cc(-c2[nH]c3cnc(C4CCN(C5CCOC5)CC4)nc3c2C(C)C)cn(C)c1=O (stereo not drawn) [Example 12, 5-(7-isopropyl-2-(1-(tetrahydrofuran-3-yl)piperidin-4-yl)-5H-pyrrolo[3,2-d]pyrimidin-6-yl)-1,3-dirnethylpyridin-2(1H)-one]
1 to 50 | < 0.1 | < 0.1 | Cc1c(-c2[nH]c3cnc(C4CCN(C5CCOCC5)CC4)nc3c2C(C)C)cn2ncnc2c1C [Example 13, 6-(7-isopropyl-2-(1-(tetrahydro-2H-pyran-4-yl)piperidin-4-yl)-5H-pyrrolo[3,2-d]pyrimidin-6-yl)-7,8-dimeihyl-[1,2,4]triazolo[1,5-a]pyridine]
1 to 50 | < 0.1 | < 0.1 | Cc1cc(-c2[nH]c3cnc(C4CCN(C5COC5)CC4)nc3c2C(C)C)cn2ncnc12 [Example 24, 6-(7-isopropyl-2-(1-(oxetan-3-yl)piperidin-4-yl)-5H-pyrrolo[3,2-d]pyrimidin-6-yl)-8-methyl-[1,2,4]triazolo[1,5-a]pyridine]
1 to 50 | 0.1 to 1 | 1 to 50 | CCc1c(-c2ccc(OC)c(OC)c2)[nH]c2cnc(-c3nnc(CCN(C)C)o3)nc12 [Example 48, 2-(5-(6-(3,4-dimethoxyphenyl)-7-ethyl-5H-pyrrolo[3,2-d]pyrimidin-2-yl)-1,3,4-oxadiazol-2-yl)-N,N-dimethylethan-1-amine]
1 to 50 | < 0.1 | < 0.1 | Cc1c(-c2[nH]c3cnc(C4CCN(CC(C)(C)O)CC4)nc3c2C(C)C)cn2ncnc2c1C [Example 27, 1-(4-(6-(7,8-dimethyl-[1,2,4]triazolo[1,5-a]pyridin-6-yl)-7-isopropyl-5H-pyrrolo[3,2-d]pyrimidin-2-yl)piperidin-1-yl)-2-methylpropan-2-ol]
1 to 50 | 0.1 to 1 | 0.1 to 1 | CCc1c(-c2ccc(OC)c(OC)c2)[nH]c2ncc(C3CCN(C(=O)CN(C)C)CC3)nc12 [Example 4, 1-(4-(6-(3,4-dimethoxypbenyl)-7-ethyl-5H-pyrrolo[2,3-b]pyrazin-2-yl)piperidin-1-yl)-2-(dimethylamino)ethanone]
1 to 50 | < 0.1 | < 0.1 | Cc1cc(-c2[nH]c3cnc(C4CCN(CC(C)(C)O)CC4)nc3c2C(C)C)cn2ncnc12 [Example 20, 1-(4-(7-isopropyl-6-(8-methyl-[1,2,4]triazolo[1,5-a]pyridin-6-yl)-5H-pyrrolo[3,2-d]pyrimidin-2-yl)piperidin-1-yl)-2-methylpropan-2-ol]
1 to 50 | 0.1 to 1 | < 0.1 | Cc1cc(-c2[nH]c3cnc(C4CCN(C(=O)CN(C)C)CC4)nc3c2C(C)C)cn(C)c1=O [Example 33, 5-(2-(1-(dimethylglycyl)piperidin-4-yl)-7-isopropyl-5H-pyrrolo[3,2-d]pyrimidin-6-yl)-1,3-dimethylpyridin-2(1H)-one]
1 to 50 | 0.1 to 1 | 1 to 50 | CCc1c(-c2ccc(OC)c(OC)c2)[nH]c2cnc(-c3nnc(CCCN(C)C)o3)nc12 [Example 37, 3-(5-(6-(3,4-dimethoxyphenyl)-7-ethyl-5H-pyrrolo[3,2-d]pyrimidin-2-yl)-1,3,4-oxadiazol-2-yl)-N,N-dimethylpropan-1-amine]
